Experimental data reported in patent US20220402950A1, “SUBSTITUTED BENZIMIDAZOLES AS PAD4 INHIBITORS” (BRISTOL-MYERS SQUIBB COMPANY, priority 2018, published 2022).
Where two headings read alike, the source gives them in different places.

Target: human PAD4 (hPAD4) (Homo sapiens, UniProt Q9UM07)
Experiment: RFMS Human PAD4 Functional Assay
Type: biochemical
Conditions: 5 nM hPAD4, 250 μM BAEE
Protocol: RFMS Human PAD4 Functional Assay:
Compounds were solubilized in 100% DMSO to achieve a 10 mM compound concentration. Compound stock solutions were stored at RT. A series of dilutions were prepared in DMSO and mixed 8 times with 20 μL mixing volume. Final top concentration of compound in the assay is 50 μM.
0.13 μL of compound solution was added to 13 μL of 10 nM PAD4 in assay buffer. After 30 min 13 μl of 500 μM of BAEE was added in 25 mM hepes, pH 7.5, 5 mM NaCl, 1 mM DTT, 0.2 mg/ml BSA, 0.01% CHAPS, 50 μM Calcium, 5 μM TPEN was added and the reaction incubated for 90 min at 37° C. The enzymatic reaction was quenched by addition of 15 μl of 6.1N TCA, 100% Final Concentration is 20%, 35 μl of 8.5 mM phenyl glyoxal (final concentration 4 mM) is then added and the reaction is incubated for 30 min at 37° C.
After 30 minutes the plates are spun down to remove all precipitate. The enzyme reaction was quenched with an equal volume of methanol containing internal standard (modified citrulline). Samples were loaded onto the Rapid Fire RF300 system (Agilent) wherein they were first sipped for 1000 ms and then directly loaded to a C18 separations cartridge using a mixture of acetonitrile containing 0.01% formic acid for 3000 ms desalting. The flow rate of the mobile phase was 1.5 ml/min.
The dwell time for each transition was set at 200 ms, and the ESI voltage was used at 5500 with a source temperature of 400° C. Extracted ion peaks for each transition were integrated using the Rapid Fire Integrator software. Peak area of analyte was normalized with internal standard.).

[1] = human PAD4, rapid-fire mass spectrum (RFMS) assay, read-out: hPAD4 RFMS IC50
[2] = hPAD4 RFMS IC50, human PAD4, rapid-fire mass spectrum (RFMS) assay

human PAD4 (hPAD4), sequence (Q9UM07 whole entry): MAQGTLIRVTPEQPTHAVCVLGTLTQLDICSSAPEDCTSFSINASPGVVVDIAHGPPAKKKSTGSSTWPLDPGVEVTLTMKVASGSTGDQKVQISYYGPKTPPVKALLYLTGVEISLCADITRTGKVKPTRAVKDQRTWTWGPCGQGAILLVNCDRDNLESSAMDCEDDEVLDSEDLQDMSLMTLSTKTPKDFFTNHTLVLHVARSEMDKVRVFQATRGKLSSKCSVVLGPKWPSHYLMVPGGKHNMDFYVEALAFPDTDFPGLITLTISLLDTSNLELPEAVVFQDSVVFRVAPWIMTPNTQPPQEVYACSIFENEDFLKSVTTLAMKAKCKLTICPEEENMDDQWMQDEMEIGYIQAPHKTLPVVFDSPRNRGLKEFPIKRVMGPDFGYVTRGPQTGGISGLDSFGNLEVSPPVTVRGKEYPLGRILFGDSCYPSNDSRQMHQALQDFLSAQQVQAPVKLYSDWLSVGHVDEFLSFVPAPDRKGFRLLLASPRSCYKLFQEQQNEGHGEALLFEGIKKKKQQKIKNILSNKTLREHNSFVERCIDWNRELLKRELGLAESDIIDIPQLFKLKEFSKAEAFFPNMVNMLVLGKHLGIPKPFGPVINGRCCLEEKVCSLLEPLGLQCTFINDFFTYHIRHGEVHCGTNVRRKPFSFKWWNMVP

IC50 [1] [nM] | IC50 [2] [nM] | Molecule
– | 71 | COc1cc(C(=O)N2C[C@H]3CC[C@@H]2[C@@H]3N)cc2nc(-c3cc4cccc(C5CC(O)C5)c4n3CC3CC3)n(C)c12 (mixture of isomers) [Example 18, cis- and trans-3-(2-{5-[(1R,4R,7R)-7-amino-2-azabicyclo[2.2.1]heptane-2-carbonyl]-7-methoxy-1-methyl-1H-1,3-benzodiazol-2-yl}-1-(cyclopropylmethyl)-1H-indol-7-yl)cyclobutan-1-ol]
20 | – | CNC(=O)C1CC(c2cccc3cc(-c4nc5cc(C(=O)N6C[C@H]7CC[C@@H]6[C@@H]7N)cc(OC)c5n4C)n(CC4CC4)c23)C1 (single isomer, unassigned) [Example 43]
48 | – | CNC(=O)C1CC(c2cccc3cc(-c4nc5cc(C(=O)N6C[C@H]7CC[C@@H]6[C@@H]7N)cc(OC)c5n4C)n(CC4CC4)c23)C1 (single isomer, unassigned) [Example 44]
– | 25 | COc1cc(C(=O)N2C[C@H]3CC[C@@H]2[C@@H]3N)cc2nc(-c3cc4cccc(C5CC(C(N)=O)C5)c4n3CC3CC3)n(C)c12 (single isomer, unassigned) [Example 45]
– | 13 | COc1cc(C(=O)N2C[C@H]3CC[C@@H]2[C@@H]3N)cc2nc(-c3cc4cccc(C5CC(C(N)=O)C5)c4n3CC3CC3)n(C)c12 (single isomer, unassigned) [Example 46]
– | 13 | COc1cc(C(=O)N2C[C@H]3CC[C@@H]2[C@@H]3N)cc2nc(-c3cc4cccc(C5CC(C(=O)N(C)C)C5)c4n3CC3CC3)n(C)c12 (single isomer, unassigned) [Example 47]
– | 50 | COc1cc(C(=O)N2C[C@H]3CC[C@@H]2[C@@H]3N)cc2nc(-c3cc4cccc(C5CC(C(=O)N(C)C)C5)c4n3CC3CC3)n(C)c12 (single isomer, unassigned) [Example 48]
– | 34 | COc1cc(C(=O)N2C[C@H]3CC[C@@H]2[C@@H]3N)cc2nc(-c3cc4cccc(C5CC(C(=O)N6CCCC6)C5)c4n3CC3CC3)n(C)c12 (single isomer, unassigned) [Example 49]
– | 81 | COc1cc(C(=O)N2C[C@H]3CC[C@@H]2[C@@H]3N)cc2nc(-c3cc4cccc(C5CC(C(=O)N6CCCC6)C5)c4n3CC3CC3)n(C)c12 (single isomer, unassigned) [Example 50]
– | 48 | COc1cc(C(=O)N2C[C@H]3CC[C@@H]2[C@@H]3N)cc2nc(-c3cc4cccc(C5CC(C(=O)N6CC[C@@H](O)C6)C5)c4n3CC3CC3)n(C)c12 (single isomer, unassigned) [Example 51]
– | 97 | COc1cc(C(=O)N2C[C@H]3CC[C@@H]2[C@@H]3N)cc2nc(-c3cc4cccc(C5CC(C(=O)N6CC[C@@H](O)C6)C5)c4n3CC3CC3)n(C)c12 (single isomer, unassigned) [Example 52]
– | 51 | COc1cc(C(=O)N2C[C@H]3CC[C@@H]2[C@@H]3N)cc2nc(-c3cc4cccc(C5CC(C(=O)N6CC[C@H](O)C6)C5)c4n3CC3CC3)n(C)c12 (single isomer, unassigned) [Example 53]
– | 92 | COc1cc(C(=O)N2C[C@H]3CC[C@@H]2[C@@H]3N)cc2nc(-c3cc4cccc(C5CC(C(=O)N6CC[C@H](O)C6)C5)c4n3CC3CC3)n(C)c12 (single isomer, unassigned) [Example 54]
– | 122 | COc1cc(C(=O)N2C[C@H]3CC[C@@H]2[C@@H]3N)cc2nc(-c3cc4cccc(C5CC(C(=O)O)C5)c4n3CC3CC3)n(C)c12 (single isomer, unassigned) [Example 55]
– | 170 | COc1cc(C(=O)N2C[C@H]3CC[C@@H]2[C@@H]3N)cc2nc(-c3cc4cccc(C5CC(C(=O)O)C5)c4n3CC3CC3)n(C)c12 (single isomer, unassigned) [Example 56]
75 | – | COc1cc(C(=O)N2C[C@H]3CC[C@@H]2[C@@H]3N)cc2nc(-c3cc4cccc(C5CC(NC(C)=O)C5)c4n3CC3CC3)n(C)c12 (single isomer, unassigned) [Example 58]
59 | – | COc1cc(C(=O)N2C[C@H]3CC[C@@H]2[C@@H]3N)cc2nc(-c3cc4cccc(C5CC(NC(C)=O)C5)c4n3CC3CC3)n(C)c12 (single isomer, unassigned) [Example 59]
49 | – | COc1cc(C(=O)N2C[C@H]3CC[C@@H]2[C@@H]3N)cc2nc(-c3cc4cccc(C5CCCC(C(N)=O)C5)c4n3CC3CC3)n(C)c12 (single isomer, unassigned) [Example 85]
40 | – | COc1cc(C(=O)N2C[C@H]3CC[C@@H]2[C@@H]3N)cc2nc(-c3cc4cccc(C5CCCC(C(N)=O)C5)c4n3CC3CC3)n(C)c12 (single isomer, unassigned) [Example 86]
76 | – | CNC(=O)C1CC(c2cccc3cc(-c4nc5cc(C(=O)N6C[C@H](N)C[C@@H](F)C6)cc(OC)c5n4C)n(CC4CC4)c23)C1 (single isomer, unassigned) [Example 111]
145 | – | CNC(=O)C1CC(c2cccc3cc(-c4nc5cc(C(=O)N6C[C@H](N)C[C@@H](F)C6)cc(OC)c5n4C)n(CC4CC4)c23)C1 (single isomer, unassigned) [Example 112]
– | 52 | COc1cc(C(=O)N2C[C@H](N)C[C@@H](F)C2)cc2nc(-c3cc4cccc(C5CC(C(N)=O)C5)c4n3CC3CC3)n(C)c12 (single isomer, unassigned) [Example 113]
– | 81 | COc1cc(C(=O)N2C[C@H](N)C[C@@H](F)C2)cc2nc(-c3cc4cccc(C5CC(C(N)=O)C5)c4n3CC3CC3)n(C)c12 (single isomer, unassigned) [Example 114]
– | 64 | COc1cc(C(=O)N2C[C@H](N)C[C@@H](F)C2)cc2nc(-c3cc4cccc(C5CC(C(=O)N6CCCC6)C5)c4n3CC3CC3)n(C)c12 (single isomer, unassigned) [Example 115]
– | 95 | COc1cc(C(=O)N2C[C@H](N)C[C@@H](F)C2)cc2nc(-c3cc4cccc(C5CC(C(=O)N6CCCC6)C5)c4n3CC3CC3)n(C)c12 (single isomer, unassigned) [Example 116]
– | 117 | COc1cc(C(=O)N2C[C@H](N)C[C@@H](F)C2)cc2nc(-c3cc4cccc(C5CC(C(=O)N(C)C)C5)c4n3CC3CC3)n(C)c12 (single isomer, unassigned) [Example 117]
– | 278 | COc1cc(C(=O)N2C[C@H](N)C[C@@H](F)C2)cc2nc(-c3cc4cccc(C5CC(C(=O)N(C)C)C5)c4n3CC3CC3)n(C)c12 (single isomer, unassigned) [Example 118]
– | 16 | [2H]C([2H])([2H])N(C(=O)C1CC(c2cccc3cc(-c4nc5cc(C(=O)N6C[C@H]7CC[C@@H]6[C@@H]7N)cc(OC)c5n4C)n(CC4CC4)c23)C1)C([2H])([2H])[2H] (single isomer, unassigned; isomer 1) [Example 195]
– | 21 | COc1cc(C(=O)N2C[C@H]3CC[C@@H]2[C@@H]3N)cc2nc(-c3cc4cccc(C5CC(C(=O)N6CC(F)C6)C5)c4n3CC3CC3)n(C)c12 (single isomer, unassigned; isomer 1) [Example 200]

Molecule | IC50 [1] [nM] | IC50 [2] [nM]
1-(2-(5-((1R,4R,7R)- 7-amino-2- azabicyclo[2.2.1]heptane- 2-carbonyl)-7- methoxy-1-methyl- 1H-benzo[d]imidazol- 2-yl)-1- (cyclopropylmethyl)- 1H-indol-7-yl)-N- (pyridin-3- yl)piperidine-1- carboxamide [Example 244] | 19 | –
